{"source": "patent US7947647B2", "about": "“Synthetic mimics of mammalian cell surface receptors: method and compositions” (The Penn State Research Foundation, priority 2004, dated 2011)", "key": {"[1]": {"tested_on": "Jurkat lymphocytes", "assay_type": "cell-based", "experimental": "Analysis of cytotoxicity of protein delivery.\nTo examine the toxicity of this metal acetate and protein delivery, cellular viability was examined by flow cytometry. In these experiments, Jurkat lymphocytes were treated with receptor 1 (10 μM, 1 h), followed by AcGFP(His)10 (3.2 μM), and Ni(OAc)2 (100 μM, 4 h) to enhance protein uptake by 600-fold. Cells were washed with disodium NTA to remove cell surface protein and were cultured for an additional 48 h. Cellular viability was determined by light scattering and staining the nuclei of membrane-compromised dead cells with the fluorophore propidium iodide. Under these conditions, 97% of the cells were viable, compared with 98.6% of untreated controls, and no effects on cellular morphology were observed. Other studies have similarly reported low toxicity of nickel salts at <160 μM in cell culture.^14 By enabling common oligohistidine affinity tags to function as cell penetrating peptides, synthetic receptor 1 provides a potentially versatile new probe of cellular biology."}, "[2]": {"tested_on": "Jurkat lymphocytes", "assay": "Uptake of AcGFP-oligohistidine fusion proteins (flow cytometry)", "assay_type": "cell-based, human", "conditions": "receptor 10 μM preloaded 1 h, protein 3.2 μM, Ni(OAc)2 100 μM", "experimental": "FIG. 25. Analysis of cellular uptake of His-tagged AcGFP proteins by flow cytometry. Each bar represents the average fluorescence of 10,000 cells. Unless otherwise noted, cellular plasma membranes of Jurkat lymphocytes were preloaded with receptor 1 (10 μM) for 1 h at 37° C., cells were washed with fresh media, and His-tagged AcGFP (3.2 μM)/metal diacetate solution (100 μM) was added for 4 h at 37° C. Prior to analysis, cells were washed with NTA (400 μM, 30 min) in PBS (pH 7.4) to remove bound surface protein. Panel A: Dose dependence of receptor-mediated uptake. Premix conditions: a solution containing receptor 1, Ni(OAc)2, and AcGFP(His)10 was added to cells for 4 h. Panel B: Dependence on [Ni(OAc)2]. Panel C: Omission control experiments. Panel D; Uptake of (His)6 and (His)10 fusion proteins promoted by different metal diacetates.\nPreload conditions: To Jurkat lymphocytes (7×10^5) in RPMI media (0.5 mL) was added synthetic receptor 1 (typical final [Receptor 1]=10 μM) in DMSO (final [DMSO]=1%). These cells were incubated at 37° C. for 1 h to load the receptor into cellular plasma membranes. The cells were washed with RPMI media (0.5 mL) to remove unincorporated receptor/DMSO and resuspended in fresh media (87.6 μL). […]"}}, "note": "Values joined by “and” are separate entries in the source; they are usually repeats but may differ in a detail not shown here. Equal values may be shown once."}
{"smiles": "CC(C)CCC[C@@H](C)[C@H]1CC[C@H]2[C@@H]3CC=C4C[C@@H](NCCCCC(=O)NCCC(=O)NCCC(=O)NCCCCC(C(=O)O)N(CC(=O)O)CC(=O)O)CC[C@]4(C)[C@H]3CC[C@]12C", "note": "(stereo partly drawn) [receptor 1, 4-Carboxy-3-(carboxymethyl)-22-[(3β)-cholest-5-en-3-ylamino]-10,14,18-trioxo-3,9,13,17-tetraazadocosan-1-oic acid]", "values": [{"measurement": "effects on viability or cellular morphology", "setting": "[1]", "result": "No significant effects on viability or cellular morphology were observed"}, {"measurement": "cells viable", "setting": "[1]; human, 10 μM", "result": 97, "unit": "%"}, {"measurement": "intracellular delivery of AcGFP(His)10 above basal levels of endocytosis", "setting": "[2]", "result": "> 600 fold and 600 fold"}]}
